Assay [1] concerns human squamous cell carcinoma of the head and neck (SCCHN) cell line FaDu. The experiment in a line: FaDu growth inhibition assay. Format: cell-based. The note with it: 3 days incubation, CellTiter-Glo. The protocol: (§1) In this assay, the growth inhibitory activity of test compounds in a human squamous cell carcinoma of the head and neck (SCCHN) cell line FaDu was measured. FaDu cells were maintained in an RPMI-1640 (Wako Pure Chemical Industries, Ltd., 187-02021) medium containing 10% fetal bovine serum (FBS: Nichirei, 12D168), and penicillin and streptomycin in a 5% CO2 incubator (37° C.). To each well of a 96 well plate (Becton, Dickinson and Company, 353219), 75 μL of FaDu cell suspension adjusted to a concentration of 4×10^4 cells/mL with the culture medium was added, and the cells were incubated overnight in a 5% CO2 incubator (37° C.). On the next day, 25 μL of Compound (1) or Halichondrin B in three-fold dilution series suspended in the culture medium was added to each well, and the resultant was incubated for 3 days in a 5% CO2 incubator (37° C.). Then, cell viability was determined by CellTiter-Glo® Luminescent Cell Viability Assay (Promega) with EnVision 2103 Multilabel Reader (Perkin-Elmer, Wellesley, MA). Value of the wells containing cells without adding the test compounds was defined as 100% and the value of the wells containing no cells was defined as 0%. The concentration of the test compound necessary for inhibiting the cell growth by 50% (i.e., an IC50 value) was calculated, and shown in Table 1.

In assay [2] the test system is human breast cancer cell line MDA-MB231. The experiment in a line: MDA-MB231 growth inhibition assay. Format: cell-based. The conditions noted are these: 3 days incubation, CellTiter-Glo. The protocol:
as §1, with “breast cancer” for “squamous cell carcinoma of the head and neck (SCCHN)”, “MDA-MB231” for “FaDu”, “Dulbecco's Modified Eagle's medium” for “an RPMI-1640”, “044-29765)” for “187-02021)”, “2.” for “1.”

Assay [3] relates to FaDu subcutaneous xenograft. The experiment in a line: Antitumor effects in FaDu subcutaneous xenograft model as monotherapy. Format: in vivo, nude mice. The note with it: intravenous at MTD: Halichondrin B 0.05 mg/kg, Compound (1) 0.2 mg/kg. The protocol:
A human squamous cell carcinoma of the head and neck (SCCHN) cell line FaDu, which had been cultured in an RPMI-1640 medium containing 10% FBS, and penicillin and streptomycin, was adjusted to a concentration of 4.8×10^7 cells/mL with Hanks' Balanced Salt Solution to prepare a cell suspension. The cell suspension was inoculated in a volume of 100 μL into a subcutaneous part of a right flank of nude mice, 7 weeks of ages (CAnN.Cg-Foxnlnu/CrlCrlj, female, Charles River Laboratories Japan Inc.). Nine days after cell inoculation, the shortest diameter and the longest diameter of a tumor in each mouse were measured by using an electronic digital caliper (Digimatic™ caliper, Mitutoyo Corporation), so as to calculate the volume of the tumor in accordance with the following calculation formulae: […]
On the basis of the volumes of tumors obtained on the first day of administration, the mice were grouped such that averages of the tumor volumes were substantially equal among the groups. Each test compound was dissolved in DMSO and a solution was stored at the freezer before use. Immediately before the administration, the stock solution was diluted in saline with 100 μM of hydroxypropyl-β-cyclodextrin. Each evaluation sample was intravenously administered at a maximum tolerable dose (MTD). Incidentally, the experiment was conducted on groups each consisting of 4 mice.

Assay [4] relates to CD31-positive vessel in FaDu tumor. In words: Effect on CD31-positive vessel in the FaDu subcutaneous model (Test Example 9). Format: in vivo, nude mice. The conditions noted are these: five days after administration. The method, then:
A human squamous cell carcinoma of the head and neck (SCCHN) cell line FaDu, which had been cultured in an RPMI-1640 medium containing 10% FBS, and penicillin and streptomycin, was adjusted to a concentration of 5×10^7 cells/mL with PBS to prepare a cell suspension. The cell suspension was inoculated in a volume of 100 μL into a subcutaneous part of a right flank of nude mice, 7 weeks of ages (CAnN.Cg-Foxnlnu/CrlCrlj, female, Charles River Laboratories Japan, Inc.). Ten days after cell inoculation, a test compound in saline with 100 μM of hydroxypropyl-β-cyclodextrin was intravenously administered at doses from ½ MTD to MTD. The experiment was conducted on groups each consisting of 3 mice. Five days after administration, tumor samples were collected and fixed with IHC Zinc Fixative (BD Pharmingen) at 4° C. for 24 hr. Paraffin-embedded tissues were sectioned ([…]), mounted on positively charged slides, and air-dried. Immunohistochemical staining of CD31 was conducted using Ventana autostainer model Discover XT (Roche Diagnostics) according to the manufacture's protocol. Sections were deparaffinized, conditioned and the antigens were retrieved with CC1 (Ventana Medical Systems). Slides were blocked with Blocker A and Blocker B (Endogenous biotin blocking kit, Roche Diagnostics). Rat anti-mouse IgG CD31 antibody (Dianova GmbH) was applied at 2 μg/mL. Sections were incubated with the antibody for 6 hr, followed by 32 minutes incubation with biotinylated anti-rat IgG antibody (Jackson ImmunoResearch Laboratories) at 2.2 μg/mL. The detection was performed with Streptavidin-HRP D for 16 min, followed by incubation with DAB D and DAB H2O2 D (DABMap kit, Ventana Medical Systems, Inc) for 8 min. Slides were counterstained with Hematoxylin II (Roche Diagnostics) for 16 min, followed by incubation with Bluing reagent for 4 min. Sections were dehydrated in graded ethanols, defatted in xylene replacement and covered with DPX (Merck KGaA).
Immunostained slides were scanned using Vectra 2 Automated Slide Imaging System (Perkin Elmer Inc.). The number of blood vessels in the whole tumor was quantified by counting the CD31-positive objects using in Form 2 software (PerkinElmer Inc.) Area of the tumor region was measured by assessing the hematoxylin-staining area using inform 2 software (PerkinElmer Inc.) The number of blood vessels was normalized by the area of the tumor region. An increase rate of the blood vessel number of the test compound-dosing group was calculated with the below formula, and shown in Table 9.

Setting [5] is: MTD i.v. (Halichondrin B 0.05 mg/kg, Compound (1) 0.20 mg/kg).
[6] abbreviates: ½ MTD i.v. (Halichondrin B 0.025 mg/kg, Compound (1) 0.10 mg/kg).

For `C=C1C[C@@H]2CC[C@@]34C[C@H]5O[C@H]6[C@@H](O3)[C@H]3O[C@H](CC[C@@H]3O[C@H]6C5O4)CC(=O)O[C@@H]3[C@@H](C)[C@@H]4O[C@@H]5C[C@]6(C[C@@H]7O[C@]8(C[C@H](C)[C@@H]9O[C@H](CN)[C@H](O)C[C@@H]9O8)C[C@H](C)[C@@H]7O6)O[C@@H]5C[C@@H]4O[C@H]3C[C@H]3O[C@@H](CC[C@@H]1O2)C[C@@H](C)C3=C` (stereo in doubt) [Compound (1)], the IC50 in assay [1] (Homo sapiens, FaDu, 72 h) came out at 0.0714 nM; in assay [2] (Homo sapiens, MDA-MB-231, 72 h) it was 0.109 nM. For the same compound, the “Tumor Regression (%)” value in assay [3] is reported as 43%. The “Increase rate of blood vessel number (%)” value stood at 154% in assay [4] (setting [5]) and 69% in assay [4] (setting [6]).

Consider `C=C1C[C@@H]2CC[C@@]34C[C@H]5O[C@H]6[C@@H](O3)[C@H]3O[C@H](CC[C@@H]3O[C@H]6[C@H]5O4)CC(=O)O[C@@H]3[C@@H](C)[C@@H]4O[C@@H]5C[C@]6(C[C@@H]7O[C@]8(C[C@H](C)[C@@H]9O[C@H]([C@@H](O)C[C@@H](O)CO)C[C@@H]9O8)C[C@H](C)[C@@H]7O6)O[C@@H]5C[C@@H]4O[C@H]3C[C@H]3O[C@@H](CC[C@@H]1O2)C[C@@H](C)C3=C` [Halichondrin B, reference compound], for which the IC50 in assay [1] came out at 0.124 nM; in assay [2] it was 1 nM. Moreover, the “Tumor Regression (%)” value in assay [3] is given as 0%. In addition, the entries for the “Increase rate of blood vessel number (%)” value in assay [4] (setting [5]) and in assay [4] (setting [6]) were 39% and 31%, respectively.

The values above are taken from patent US20240309014A1, “MACROCYCLIC COMPOUNDS AND USES THEREOF” (President and Fellows of Harvard College, priority 2017, published 2024).
